Tests used:
Assay type in all cases: functional
[1] = Antiproliferative activity against human IMR32 cells assessed as reduction in net protein increase after 48 hrs by SRB assay; settings: IMR-32, 48 h
[2] = Antiproliferative activity against human MiaPaCa cells assessed as reduction in net protein increase after 48 hrs by SRB assay; settings: MIA PaCa-2, 48 h
MDA-MB-231 = test: Antiproliferative activity against human MDA-MB-231 cells assessed as reduction in net protein increase after 48 hrs by SRB assay; settings: MDA-MB-231, 48 h
HeLa = test: Antiproliferative activity against human HeLa cells assessed as reduction in net protein increase after 48 hrs by SRB assay

SMILES | GI50 [1] [µM] | GI50 [2] [µM] | GI50 (MDA-MB-231) [µM] | GI50 (HeLa) [µM]
CCCCc1cn(CCCN2C(=O)COc3ccccc32)nn1 | 5.7 | 2.5 | 3.6 | 1.02
O=C1COc2ccccc2N1CCCn1cc(CCCCl)nn1 | 0.2 | 12.5 | 6.4 | 0.1
O=C1COc2ccccc2N1CCCn1cc(C2(O)CCCCC2)nn1 | 1.2 | 2.5 | 1.2 | 2
CC(=O)O[C@H]1C(=O)[C@@]2(C)[C@H]([C@H](OC(=O)c3ccccc3)[C@]3(O)C[C@H](OC(=O)[C@H](O)[C@@H](NC(=O)c4ccccc4)c4ccccc4)C(C)=C1C3(C)C)[C@]1(OC(C)=O)CO[C@@H]1C[C@@H]2O [PACLITAXEL] | 0.075 | 0.056 | 0.091 | 0.025
CCCc1cn(CCCN2C(=O)COc3ccccc32)nn1 | 1.4 | 2.6 | 1.1 | 23.2
O=C1COc2ccccc2N1CCCn1cc(CO)nn1 | 5.5 | 1.01 | 5.7 | 7.3
O=C1COc2ccccc2N1CCCn1cc(-c2cc3ccccc3c3ccccc23)nn1 | 0.13 | 8.4 | > 100 | > 100
O=C1COc2ccccc2N1CCCn1cc(-c2ccccc2)nn1 | 0.37 | 94 | 4.9 | 9
CCCCCc1ccc(-c2cn(CCCN3C(=O)COc4ccccc43)nn2)cc1 | 43.5 | > 100 | 5 | > 100
CCCCCCc1cn(CCCN2C(=O)COc3ccccc32)nn1 | 0.71 | 0.15 | 1.1 | 0.1
COc1ccc(-c2cn(CCCN3C(=O)COc4ccccc43)nn2)cc1 | 49.9 | 15.7 | 41.5 | 4.9
O=C1COc2ccccc2N1CCCn1cc(-c2cccnc2)nn1 | 0.86 | 8.2 | 3 | > 100
COc1ccc2cc(-c3cn(CCCN4C(=O)COc5ccccc54)nn3)ccc2c1 | 1.3 | > 100 | 5 | > 100
O=C1COc2ccccc2N1CCCn1cc(-c2ccccn2)nn1 | 2 | 5.8 | 4.8 | 10
COc1cccc2c1C(=O)c1c(O)c3c(c(O)c1C2=O)C[C@@](O)(C(=O)CO)C[C@@H]3O[C@H]1C[C@H](N)[C@H](O)[C@H](C)O1 [DOXORUBICIN] | 0.023 | 0.097 | 0.085 | 0.073
Cc1ccc(-c2cn(CCCN3C(=O)COc4ccccc43)nn2)cc1 | 4.4 | > 100 | 1.12 | 14.3

From ChEMBL document CHEMBL3351254, “Rational design, synthesis and anti-proliferative evaluation of novel 1,4-benzoxazine-[1,2,3]triazole hybrids” (2015)
